Read-outs that look alike come from different tables or passages of the source.

One test concerns the target T1, recombinant human MetAP2 (Homo sapiens, UniProt P50579).
T1 construct: made in house; host or cells: High Five insect cells (Bac-to-Bac baculovirus)
The test is described as follows: MetAP2 enzyme assay (inhibition of recombinant MetAP2, Met-Gly-Met-Met substrate). The test is classed as biochemical. To be noted: 50 nM. As for the experimental part:
Exemplary procedures for expression and purification of MetAP2 are shown in Griffith et al. (PNAS (1998) 95(26):15183-15188). Briefly, recombinant His-tagged human MetAP2 is expressed by using a Bac-to-Bac baculovirus expression system (GIBCO/BRL). Recombinant baculovirus stocks are generated and amplified as per the manufacturer's instructions. Protein is harvested 36 hr after baculovirus infection of two 15-cm plates of High Five cells.
The cell pellet are weighed and lysed (in 5 ml/g of wet pellet) in pre-chilled lysis buffer [buffer B+1% Nonidet P-40/1 mM phenymethylsulfonyl fluoride (PMSF)/2 μg/ml leupeptin/2 μg/ml aprotinin/1 μg/ml pepstatin]. The lysate is incubated on ice for 10 min and centrifuged at 10,000×g for 10 min. […] The Talon resin is pelleted by centrifugation at 1,200×g for 3 min and washed with 4×10 ml of buffer B. During the final wash, the resin is slurried into a Bio-Rad Econo column. The 6×His-tagged MetAP2 is eluted with 6 ml of 50 mM imidazole in buffer B, and 0.5 ml fractions are collected. The amount and purity of recombinant MetAP2 is analyzed by the absorbance at 280 nm and SDS/PAGE (10% gel). The fractions containing the highest amounts of MetAP2 are pooled and dialyzed against 3 liters of buffer B overnight before storage at 4° C.
An enzyme assay is performed in a 96-well format as described in Griffith et al. (PNAS (1998) 95(26):15183-15188). […] To begin the enzymatic reaction, Met-Gly-Met-Met is added to a final concentration of 4 mM and incubated at 37° C. The reaction is quenched after 20 min by adding EDTA to a concentration of 10 mM. Released methionine is quantitated as described in Ben-Bassat et al. (J Bacteriol (1987) 169:751-757).
IC50 values are calculated and compounds herein are determined to be active inhibitors of MetAP2, with some having nanomolar activities.

Test [1] can be described thus: Cell Based Assay (inhibition range).
Where [2] appears, read: 1 hr, read-out: MetAP2 Enzyme Assay 1 hr 50 nM.
The mark [3] stands for this setting: 2 hr, read-out: MetAP2 Enzyme Assay 2 hr 50 nM.
[4] abbreviates: 4 hr, read-out: MetAP2 Enzyme Assay 4 hr 50 nM.

T1 sequence (P50579 whole entry): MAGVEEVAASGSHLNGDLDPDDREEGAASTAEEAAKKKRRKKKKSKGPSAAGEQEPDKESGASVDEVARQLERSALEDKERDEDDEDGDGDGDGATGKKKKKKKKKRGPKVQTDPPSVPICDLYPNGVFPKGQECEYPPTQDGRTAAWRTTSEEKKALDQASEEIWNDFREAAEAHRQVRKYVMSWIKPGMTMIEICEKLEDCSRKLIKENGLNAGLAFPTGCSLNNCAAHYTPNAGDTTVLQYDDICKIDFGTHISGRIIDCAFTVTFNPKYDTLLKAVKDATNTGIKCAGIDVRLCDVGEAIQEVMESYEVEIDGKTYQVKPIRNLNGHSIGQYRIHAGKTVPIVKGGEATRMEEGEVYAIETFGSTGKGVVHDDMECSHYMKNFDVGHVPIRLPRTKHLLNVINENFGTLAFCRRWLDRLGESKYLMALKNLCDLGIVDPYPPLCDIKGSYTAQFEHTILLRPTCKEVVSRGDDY

Regarding `CO[C@@H]1C(=O)CC[C@]2(CO2)[C@H]1C1(C)O[C@@H]1CCC(C)C` (stereo in doubt) [Example 52, (3R,5 S)-4-((2R,3R)-3-isopentyl-2-methyloxiran-2-yl)-5-methoxy-1-oxaspiro[2.5]octan-6-one], the figures for the inhibition at 0.05 µM on recombinant human MetAP2 (setting [2]), at recombinant human MetAP2 (setting [3]) and on recombinant human MetAP2 (setting [4]) were 0%, 0% and 17%, respectively.

As a reminder, the IC50 is the concentration that gives 50% inhibition. High values mean weaker potency in that assay, low ones greater potency in that assay. `CO[C@@H]1C(=CC=C(C)C)CC[C@]2(CO2)[C@H]1[C@@]1(C)O[C@@H]1CC=C(C)C` [Example 21]: the inhibition at 0.05 µM on recombinant human MetAP2 (setting [2]), at recombinant human MetAP2 (setting [3]) and on recombinant human MetAP2 (setting [4]) was 0% throughout. In test [1] (in uM), the half-inhibitory concentration (IC50) was more than 1 µM.

Turning to `C=C1CC[C@]2(CO2)[C@@H]([C@@]2(C)O[C@@H]2C/C=C/CCCC)[C@@H]1OC` [Example 22], the inhibition at 0.05 µM on recombinant human MetAP2 (setting [2]), at recombinant human MetAP2 (setting [3]) and on recombinant human MetAP2 (setting [4]) was 0% each time. In test [1] (in uM), this compound showed an IC50 of more than 1 µM.

For the compound `CCCC/C=C/C[C@H]1O[C@]1(C)[C@H]1[C@H](OC)[C@H](O)CC[C@]12CO2` [Example 24], the inhibition at 0.05 µM at recombinant human MetAP2 (setting [2]), on recombinant human MetAP2 (setting [3]) and at recombinant human MetAP2 (setting [4]) was 0% each time. In addition, the IC50 in test [1] (cells printed in nM) lay in the range of 0.01 to 0.1 µM.

For `CO[C@@H]1C(C)CC[C@]2(CO2)[C@H]1[C@@]1(C)O[C@@H]1CCC(C)C` (stereo partly shown) [Example 26], the inhibition at 0.05 µM at recombinant human MetAP2 (setting [2]), at recombinant human MetAP2 (setting [3]) and on recombinant human MetAP2 (setting [4]) was 0% each time.

For `CCCCCCCCCC[S+]([O-])[C@@H]1CC[C@]2(CO2)[C@@H]([C@@]2(C)O[C@@H]2CC=C(C)C)[C@@H]1OC` (stereo partly shown) [Example 31], the inhibition at 0.05 µM on recombinant human MetAP2 (setting [4]) is 0%.

As to `CO[C@@H]1[C@H](OC(=O)/C=C/C=C/C=C/C=C/C(=O)O)CC[C@]2(CO2)[C@H]1[C@@]1(C)O[C@@H]1CC=C(C)C` [Example 36], on recombinant human MetAP2 (setting [4]), the inhibition at 0.05 µM was found to be 64%. This compound registered an IC50 in test [1] (cells printed in nM) of less than 0.01 µM.

Turning to `CCOC(=O)C=C1CC[C@]2(CO2)[C@@H]([C@@]2(C)O[C@@H]2CC=C(C)C)[C@@H]1OC` [Example 37], the inhibition at 0.05 µM at recombinant human MetAP2 (setting [4]) amounted to 96%. For the same compound, the IC50 in test [1] (cells printed in nM) is less than 0.01 µM.

`CO[C@@H]1C(=O)CC[C@]2(CO2)[C@H]1[C@@]1(C)O[C@@H]1CC=C(C)C` [Example 51, (3R,5S)-5-methoxy-4-((2R,3R)-2-methyl-3-(3-methylbut-2-enyl)oxiran-2-yl)-1-oxaspiro[2.5]octan-6-one]: the inhibition at 0.05 µM is 0% at recombinant human MetAP2 (setting [2]), 44% on recombinant human MetAP2 (setting [3]) and 78% on recombinant human MetAP2 (setting [4]).

Turning to `CO[C@@H]1C(=O)C(C)C[C@]2(CO2)C1[C@@]1(C)O[C@@H]1CC=C(C)C` (stereo partly drawn) [Example 53, (3R,5S)-5-methoxy-7-methyl-4-((2R,3R)-2-methyl-3-(3-methylbut-2-enyl)oxiran-2-yl)-1-oxaspiro[2.5]octan-6-one], the inhibition at 0.05 µM stood at 0% on recombinant human MetAP2 (setting [2]), 0% on recombinant human MetAP2 (setting [3]) and 28% at recombinant human MetAP2 (setting [4]).

As to `CO[C@@H]1C(=O)CC[C@@](C)(O)[C@H]1[C@@]1(C)O[C@@H]1CCC(C)C` [Example 54, (2S,4R)-4-hydroxy-3-((2R,3R)-3-isopentyl-2-methyloxiran-2-yl)-2-methoxy-4-methylcyclohexanone], the inhibition at 0.05 µM on recombinant human MetAP2 (setting [2]), on recombinant human MetAP2 (setting [3]) and on recombinant human MetAP2 (setting [4]) was 0% throughout.

`CO[C@@H]1C(=O)CC[C@]2(CO2)[C@H]1C1(C)O[C@@H]1CC(=O)O` (stereo partly shown) [Example 55]: the inhibition at 0.05 µM at recombinant human MetAP2 (setting [4]) was found to be 0%.

Turning to `CO[C@@H]1C(=O)C=C[C@]2(CO2)[C@H]1[C@@]1(C)O[C@@H]1CC=C(C)C` [Example 57, (3R,S)-7-methoxy-8-((2R,3R)-2-methyl-3-(3-methylbut-2-enyl)oxiran-2-yl)-1-oxaspiro[2.5]oct-4-en-6-one], the inhibition at 0.05 µM at recombinant human MetAP2 (setting [4]) was 37%.

Take `CO[C@@H]1C(=O)CC[C@]2(CO2)[C@H]1C1(C)O[C@@H]1CC(=O)NCc1ccccc1` (stereo partly shown) [Example 58]: the inhibition at 0.05 µM at recombinant human MetAP2 (setting [4]) is 0%.

For the compound `CCOC(=O)CCCCC/C=C/C[C@H]1OC1(C)[C@H]1[C@H](OC)C(=O)CC[C@]12CO2` (stereo partly shown) [Example 59], the inhibition at 0.05 µM on recombinant human MetAP2 (setting [4]) was found to be 0%. In addition, in test [1] (cells printed in nM), the IC50 fell in the range of 0.01 to 0.1 µM.

These data come from patent publication US10259796B2, “Oxaspiro[2.5]octane derivatives and analogs” (Zafgen, Inc., priority 2011, dated 2019).
